Reference: patent US7531547B2, “Diaminopyrimidines as P2X3 and P2X2/3 modulators” (Roche Palo Alto LLC, priority 2005, dated 2009)

Experiments:
[1] = molecular target: T1, rat P2X3 receptor (Rattus norvegicus, UniProt P49654); assay: P2X3 FLIPR (Fluorometric Imaging Plate Reader) assay, CHO-K1 cells; assay type: cell-based; conditions: CHO-K1 cells transfected with rat P2X3; agonist α,β-meATP 1 μM; Fluo-3 calcium fluorescence; read-out: pIC50 for the P2X3 receptor (converted)
T1 construct: expressed in transfected cells; host or cells: CHO-K1
T1 sequence (P49654 1-397): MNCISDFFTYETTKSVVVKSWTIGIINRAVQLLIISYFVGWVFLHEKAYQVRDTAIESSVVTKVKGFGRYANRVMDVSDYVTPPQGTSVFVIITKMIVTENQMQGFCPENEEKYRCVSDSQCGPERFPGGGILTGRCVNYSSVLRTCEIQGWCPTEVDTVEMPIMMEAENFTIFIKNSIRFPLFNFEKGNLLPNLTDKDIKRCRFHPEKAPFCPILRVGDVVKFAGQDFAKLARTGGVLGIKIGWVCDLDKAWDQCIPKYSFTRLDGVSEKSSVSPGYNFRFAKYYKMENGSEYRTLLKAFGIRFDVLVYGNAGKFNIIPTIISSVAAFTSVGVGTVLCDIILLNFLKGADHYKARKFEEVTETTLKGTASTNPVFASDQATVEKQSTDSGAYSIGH
Experimental: (§1) CHO-K1 cells were transfected with cloned rat P2X3 or human P2X2/3 receptor subunits and passaged in flasks. 18-24 hours before the FLIPR experiment, cells were released from their flasks, centrifuged, and resuspended in nutrient medium at 2.5×10^5 cells/ml. The cells were aliquoted into black-walled 96-well plates at a density of 50,000 cells/well and incubated overnight in 5% CO2 at 37° C. On the day of the experiment, cells were washed in FLIPR buffer (calcium- and magnesium-free Hank's balanced salt solution, 10 mM HEPES, 2 mM CaCl2, 2.5 mM probenecid; FB). Each well received 100 μl FB and 100 μl of the fluorescent dye Fluo-3 AM [2 μM final conc.]. […]
(§2) Test compounds (dissolved in DMSO at 10 mM and serially diluted with FB) or vehicle were added to each well (25 μl of a 4× solution) and allowed to equilibrate for 20 minutes at room temperature. The plates were then placed in the FLIPR and a baseline fluorescence measurement (excitation at 488 nm and emission at 510-570 nm) was obtained for 10 seconds before a 100 μl/well agonist or vehicle addition. […] Fluorescence was measured for an additional 2 minutes at 1 second intervals after agonist addition. A final addition of ionomycin (5 μM, final concentration) was made to each well of the FLIPR test plate to establish cell viability and maximum fluorescence of dye-bound cytosolic calcium. […]

[2] = molecular target: T2, human P2X2/3 receptor (Homo sapiens, UniProt P56373+Q9UBL9); assay: P2X2/3 FLIPR (Fluorometric Imaging Plate Reader) assay, CHO-K1 cells; assay type: cell-based; conditions: CHO-K1 cells transfected with human P2X2/3; agonist α,β-meATP 5 μM; Fluo-3 calcium fluorescence; read-out: pIC50 for the P2X2/3 receptor (converted)
T2 construct: expressed in transfected cells; host or cells: CHO-K1
T2 sequence (Q9UBL9 1-471): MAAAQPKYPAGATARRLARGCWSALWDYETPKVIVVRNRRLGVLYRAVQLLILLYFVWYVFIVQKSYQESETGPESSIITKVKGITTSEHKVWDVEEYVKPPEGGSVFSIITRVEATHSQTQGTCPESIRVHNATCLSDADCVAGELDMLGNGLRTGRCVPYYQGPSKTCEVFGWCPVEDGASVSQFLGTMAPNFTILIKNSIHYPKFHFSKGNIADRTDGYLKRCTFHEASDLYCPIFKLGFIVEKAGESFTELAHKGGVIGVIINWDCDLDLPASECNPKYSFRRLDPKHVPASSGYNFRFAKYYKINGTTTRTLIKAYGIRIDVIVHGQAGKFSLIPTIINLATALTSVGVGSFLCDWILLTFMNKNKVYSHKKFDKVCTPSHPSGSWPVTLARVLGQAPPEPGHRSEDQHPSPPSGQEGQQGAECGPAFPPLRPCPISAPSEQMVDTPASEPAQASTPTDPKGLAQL
T2 sequence (P56373 1-397): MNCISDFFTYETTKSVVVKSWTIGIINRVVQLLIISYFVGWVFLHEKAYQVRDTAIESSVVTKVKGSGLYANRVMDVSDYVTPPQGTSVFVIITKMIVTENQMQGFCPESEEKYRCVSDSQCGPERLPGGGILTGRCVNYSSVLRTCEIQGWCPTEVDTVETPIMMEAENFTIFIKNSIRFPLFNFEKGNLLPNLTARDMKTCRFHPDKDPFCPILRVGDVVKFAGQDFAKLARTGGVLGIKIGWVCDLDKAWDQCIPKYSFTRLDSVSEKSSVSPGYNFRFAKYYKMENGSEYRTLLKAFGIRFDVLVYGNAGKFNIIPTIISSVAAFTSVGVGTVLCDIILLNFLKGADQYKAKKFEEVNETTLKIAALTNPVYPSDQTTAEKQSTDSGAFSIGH
Experimental: as §1, §2

| SMILES | IC50 [1] | IC50 [2] | melting point |
| --- | --- | --- | --- |
| C#Cc1cc(Oc2cnc(N)nc2N)c(C(C)C)cc1O [4-(2,4-Diamino-pyrimidin-5-yloxy)-2-ethynyl-5-isopropyl-phenol] | ~5.75 nM | ~10.2 nM | – |
| COc1cc(C(C)C)c(Oc2cnc(N)nc2N)cc1C#CC1CC1 [Compound 19, 5-(5-Cyclopropylethynyl-2-isopropyl-4-methoxy-phenoxy)-pyrimidine-2,4-diamine] | – | – | 225.5 to 226.8 °C |
| C#Cc1cc(Oc2cnc(N)nc2N)c(C#C)cc1OC [Compound 25, 5-(2,5-Diethynyl-4-methoxy-phenoxy)-pyrimidine-2,4-diamine] | – | – | 163.2 to 164.1 °C |
| C#Cc1ccc(I)c(Oc2cnc(N)nc2N)c1 [Compound 27, 5-(5-Ethynyl-2-iodo-phenoxy)-pyrimidine-2,4-diamine] | – | – | 156 to 159 °C |
